A word on the half-life: it is how long it takes for the measured level to halve.

Here are results for 2 molecules from patent publication USRE48599E1, “Compositions comprising TLIA-Ig fusion protein for the regulation of T regulatory cells, and methods for their use” (University of Miami, priority 2013, dated 2021).

The test system of series [1] is peripheral blood Treg cells. Kind of series: Peripheral blood Treg expansion, T cell subsets and serum cytokines in rhesus macaques. The format is in vivo, rhesus macaque. Particulars: for expansion of the Treg compartment at peak: 1.5 mg/kg, single IV; for expansion of the Treg compartment at peak / time of peak relative fold-expansion of Treg: peripheral blood; for serum levels of IFN-γ and TGF-β: by day 4 after treatment; for serum levels of IL-2, IL-4, IL-5, IL-10 or TNF-α: day 0, day 2, day 4, Luminex. How it is done: (§1) Safety and Activity of TL1A-Ig in Rhesus Macaque The safety and efficacy of TL1A-Ig in non-human primates (NHP) (Indian-origin macaca mulatta) were determined. Following routine screening and 60-day quarantine, rhesus macaque (rm) TL1A-Ig or human (h) TL1A-Ig were administered to the NHP on Day 0 by intravenous (IV) bolus infusion (15 minutes) Animal weights and cage-side observations were performed daily and peripheral blood was collected for analysis of complete blood counts, routine chemistries, CD4 TruCounts, serum isolation and flow cytometry analysis. For flow cytometry analysis, peripheral blood cells were counted on a Countess automated cell counter and aliquots of 1.5×10^6 cells were distributed per sample tube, FMO (Fluorescent Minus One), controls, and compensation tubes. Test samples were stained in D-PBS and 0.5% FBS with 1 μL/mL live dead aqua blue discriminator (Life Technologies). Test samples and appropriate controls were surface stained for 30 minutes with the indicated cocktails of antibodies (purchased from BD, Becton Dickinson, eBioscience or Life Technologies). For intracellular staining, cells were permeabilized with Fix/perm solution (eBioscience) for 30 minutes at 4° C. Cells were washed and stained intracellularly with anti-FoxP3 antibody for 30 minutes. Following staining, cells were washed and resuspended in 300 μL, FACs wash buffer for acquisition on a BD™ LSR11 flow cytometer (Beckton Dickinson (BD)). Cells were acquired and analysis was done of FlowJo software (Tree Star, Inc., Ashland, Oreg.). For CD4/CD8 Trucounts, CD45, CD3, CD4 and CD8 antibodies were dispensed in TruCount tubes (BD, Cat.No. 340334); 50 uL samples were added and allowed to stain for 15 minutes at room temperature in the dark. Subsequently, samples are lysed with 450 μL FACS lysing solution, and incubated for 15 minutes. Sample tubes were analyzed in the cytometer (Calibur, BD). The events were gated on lymphocytes in side scatter (SSC) dot plot and the CD45-positive population was selected, and then reported: CD3+CD4+ T cells, and CD3+CD8+ T cells. For multiplex analysis of serum cytokines, serum from the indicated days was collected and samples and controls for standard curves were placed in filter plates, and then diluted ¼, and incubated for 2 hour at room temperature with anti-cytokine beads. The content was removed and washed 2 times with the buffer before adding a mixture of biotinylated detection antibodies to each well. After incubating with detection antibody for 1 hour, plates were washed 2 times and incubated for 30 minutes with streptavidin-PE. Plates were again washed and wells were resuspended with 150 μL sheath fluid; plates were then read and analyzed on the Luminex® SD Analyzer (Life Technologies, Inc.). The PE signal (Median Fluorescent Intensity, MFI) is proportional to the amount of each cytokine present in the sample; concentrations were calculated from the standard curve.
(§2) An inherent limitation of rodent animal models is related to the highly controlled and restricted history of foreign antigen challenge of laboratory animals bred and housed under pathogen-free conditions. Given the antigen-dependent activity of TNFRSF25 agonists, this limitation has important consequences for translational studies of these agents into NHP, wherein the history of foreign antigen exposure is dramatically more diverse. To address this question, rhesus macaque TL1A-Ig (rmTL1A-Ig) was produced and tested in NHP. Treatment-naïve Indian-origin rhesus macaques (nonhuman primates (NHP)) were procured, housed and treated by expert personnel at Advanced Bioscience Laboratories (ABL, Rockville, Md.). Rhesus macaque TL1A-Ig (rmTL1A-Ig) and human (h) TL1A-Ig were manufactured and purified as described above and shipped to ABL personnel at the indicated concentration in blinded tubes diluted in a total volume of 10 ml PBS. […]

A short description of series [2]: Serum half-life of TL1A-Ig in rhesus macaques. Particulars: NHP serum, IV, one-phase exponential decay model. The class given is in vivo, rhesus macaque. On the procedure:
Safety and Activity of TL1A-Ig in Rhesus Macaque The safety and efficacy of TL1A-Ig in non-human primates (NHP) (Indian-origin macaca mulatta) were determined. Following routine screening and 60-day quarantine, rhesus macaque (rm) TL1A-Ig or human (h) TL1A-Ig were administered to the NHP on Day 0 by intravenous (IV) bolus infusion (15 minutes) Animal weights and cage-side observations were performed daily and peripheral blood was collected for analysis of complete blood counts, routine chemistries, CD4 TruCounts, serum isolation and flow cytometry analysis. For flow cytometry analysis, peripheral blood cells were counted on a Countess automated cell counter and aliquots of 1.5×10^6 cells were distributed per sample tube, FMO (Fluorescent Minus One), controls, and compensation tubes. Test samples were stained in D-PBS and 0.5% FBS with 1 μL/mL live dead aqua blue discriminator (Life Technologies). […] Sample tubes were analyzed in the cytometer (Calibur, BD). […] Plates were again washed and wells were resuspended with 150 μL sheath fluid; plates were then read and analyzed on the Luminex® SD Analyzer (Life Technologies, Inc.). The PE signal (Median Fluorescent Intensity, MFI) is proportional to the amount of each cytokine present in the sample; concentrations were calculated from the standard curve. […]

The subject of series [3] is human Tregs. Briefly: Human Treg proliferation in humanized mice (NSG-hu). The class given is in vivo. The text has this: Commercial antibodies for use in flow cytometry, ELISA and in vivo studies were purchased from BD Pharmingen, eBioscience or BioLegend. The Armenian Hamster IgG Isotype control was bought from eBioscience. Armenian hamster hybridomas producing antibodies to mouse TNFRSF25 (4C12, agonistic) were generated as described in Fang, et al. 2008. Essential role of TNF receptor superfamily 25 (TNFRSF25) in the development of allergic lung inflammation. J Exp Med 205:1037-1048. Briefly, 4C12, hTL1A-Ig and rmTL1A-Ig were produced in hollow fiber bioreactors (Fibercell Systems, Frederick, Md.) and purified from serum-free supernatants on a protein G (4C12) or protein A (TL1A-Ig) column (GE Healthcare, UK). For flow cytometry analysis, single cell suspensions were prepared from spleen and lymph nodes. 10^6 cells were pre-blocked with anti-mouse CD16/CD32 and stained with different antibody combinations. Intracellular staining was performed according to standard procedures. Flow cytometric acquisition was performed on a Becton Dickinson Fortessa instrument and […] or FlowJo software was used for analysis.
Human fetal livers from elective terminations (12-20 weeks of gestational age, Advanced Bioscience Resources) were acquired on a fee for service basis. CD34+ cells were enriched using immunomagnetic beads according to the manufacturer's instructions following density gradient centrifugation of single cell suspensions (CD34+ selection kit; Miltenyi Biotec, Auburn, Calif.). Purity of CD34+ cells isolated was evaluated by flow cytometry and was >85%. Cells were aliquotted and frozen for later HLA typing and transplanted into sub-lethally irradiated neonatal NSG mice. HLA typed CD34+ cells hematopoietic stem cells (HSC) were placed into culture containing 10% human serum, 10 ng/ml each of interleukin (IL)-3, IL-6 and stem cell factor (SCF) in IMDM for 3-5 days. On the day of transplant, cells were harvested from culture dishes and washed in HBSS and CFU and LTC-IC assays were performed to evaluate proliferation and differentiation potential. These assays were performed using standard reagents (StemCell Inc.) and methods as published by the manufacturer. CFU potential was identical to bone marrow progenitor cells following 14 day culture in methylcellulose media supplemented with SCF, GM-CSF, IL-3 and EPO. These assays readily reveal whether gross morphological characteristics and colony numbers of isolated HSC are within expected limits. One-day old NSG mice generated from timed matings were housed with foster-dams for 24 hours post-irradiation (sub-lethal, 1 Gy, whole body irradiation) at which time they are transplanted with 1×10^6−2×10^6 pre-cultured HSC intra-hepatically (i.h.) in a volume of 20 μl using a Hamilton syringe and a 30 gauge ½ inch needle. The pups were immediately returned to their foster-dams and allowed to nurse until weaning at 28 days. Human/mouse chimerism was evaluated in peripheral blood at 15 weeks of age by determining the relative percentages of murine and human CD45+ cells by flow cytometry. Once human CD45+ cells were detected, analysis was extended to include human CD3, CD4, CD8, CD11c and CD19 on all blood collections. Successfully engrafted mice were selected when the fraction of human CD45+ cells in peripheral blood exceeded 60% (NSG-hu).
To determine the in vivo activity of hTL1A-Ig on human Tregs, humanized mice were generated using human fetal liver CD34^+ cells transferred into NOD, SCID, common γ-chain deficient (NSG) recipient mice, as described above. […] The majority of human CD45+ lymphocytes in the spleen were T cells (˜50%) followed by B cells (˜35%), NK cells (˜2-3%) and dendritic cells (˜1%).

The nature of series [4]: Safety of TL1A-Ig in rhesus macaques (observations, chemistries, CBC, histopathology). The format is in vivo. Particulars: necropsy day 21, 1.5 mg/kg; for histopathology of midbrain, brainstem, liver and pancreas: H&E sections; for histopathology of sigmoid colon / histopathology of terminal ileum: four out of four animals. On the procedure: as §1, §2

For the molecule “hTL1A-Ig: extracellular domain of human TL1A fused to hinge-CH2-CH3 domain of human IgG1, SEQ ID NO: 16”, in series [1], the “expansion of the Treg compartment at peak” value is reported as “approximately 3 fold”; the “serum levels of IFN-γ and TGF-β” value is “trend toward decreased levels”; the “serum levels of IL-2, IL-4, IL-5, IL-10 or TNF-α” value was “no detectable changes”; the “time of peak relative fold-expansion of Treg” value was determined as 4 days post-treatment. Also, the half-life in series [2] is 12.5 h. Further, the “total frequency of Treg and proportion of Treg in active proliferation (Ki67+)” value in series [3] (day 5, spleen, lymph node and small intestine) is given as “significant increase”. The “expression of CD69 in CD4+ and CD8+ conventional cells” value in series [3] (lymph nodes) is “not in lymph nodes”. Further, the “mean Treg value” in series [3] (lymph nodes, day 5, 100 μg i.p.) is listed as 1.94±0.21. Moreover, in series [3] (small intestine, day 5, 100 μg i.p.), the “mean Treg value (±SEM)” value turned out to be 4.54±0.69%. In addition, the “mean Treg value (±SEM), FoxP3+ out of total CD4+CD25hiCD127- cells” value in series [3] (spleen, day 5, 100 μg i.p.) is recorded as 1.71±0.24%. The “overall balance of hCD45+, hCD4+ or hCD8+ cells” value in series [3] (spleen, lymph nodes, small intestine, day 5 after injection) is “did not significantly alter”. Also, in series [3] (spleen, p=0.0064), the “expression of CD69 in CD8+ conventional cells” value is listed as “increased expression of CD69”. For the same molecule, the “expression of CD69 in CD4+ conventional cells” value in series [3] (spleen, p=0.0363) is “increased expression of CD69”. Moreover, in series [4], the “histopathology of midbrain, brainstem, liver and pancreas” value is “no evidence of inflammation or pathology”; the “histopathology of sigmoid colon” value is reported as “mild, multifocal, lymphoplasmacytic infiltrates”; the “histopathology of terminal ileum” value is “mild, diffuse mucosal and submucosal edema”.

B1: rmTL1A-Ig: extracellular domain of rhesus macaque TL1A fused to hinge-CH2-CH3 domain of rhesus macaque IgG1, SEQ ID NO: 10 (protein)
chain: METDTLLLWVLLLWVPGSTGDLEIKTCGGGSKPPTCPPCPAPELLGGPSVFLFPPKPKDTLMISRTPEVTCVVVDVSQEDPDVKFNWYVNGAEVHHAQTKPRETQYNSTYRVVSVLTVTHQDWLNGKEYTCKVSNKALPVPIQKTISKDKGQPREPQVYTLPPSREELTKNQVSLTCLVKGFYPSDIVVEWENSGQPENTYKTTPPVLDSDGSYFLYSKLTVDKSRWQQGNVFSCSVMHEALHNHYTQEFKGQEFAPSHQQVYAPLRADGDKPRAHLTVVTQTPTQHFKNQFPALHWEHELGLAFTKNRMNYTNKFLLIPESGDYFIYSQVTFRGMTSECSEIRQAGRPNKPDSITVVITKVTDSYPEPTQLLMGTKSVCEVGSNWFQPIYLGPMFSLQEGDKLMVNVSDISLVDYTKEDKTFFGAFLL
Regarding B1, the Treg expansion entry in series [1] (0.5 mg/kg dose versus 1.5 mg/kg) is listed as “non-significantly reduced trend”. In series [1], the “expansion of the Treg compartment at peak” value is reported as “approximately 3 fold”; the “serum levels of IFN-γ and TGF-β” value is listed as “trend toward decreased levels”; the “serum levels of IL-2, IL-4, IL-5, IL-10 or TNF-α” value is “no detectable changes”; the “time of peak relative fold-expansion of Treg” value was 4 days post-treatment. Also, in series [4], the “histopathology of midbrain, brainstem, liver and pancreas” value is listed as “no evidence of inflammation or pathology”; the “histopathology of sigmoid colon” value was “mild, multifocal, lymphoplasmacytic infiltrates”; the “histopathology of terminal ileum” value was “mild, diffuse mucosal and submucosal edema”.
